Reference: PubChem BioAssay (NCI)
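Results reflect a 48-hour exposure of cells in 96-well plates to compound at five concentrations. At the GI50, growth is halved. TGI denotes the concentration required for complete inhibition of growth.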

How the values were obtained:
Assay in all cases: DTP human tumour cell line panel, 48 h; in the data active = GI50 below about 0.43 µM; inactive = the rest
M14 melanoma = test system: M14 melanoma
U251 CNS = test system: U251 CNS
HS 578T breast = test system: HS 578T breast
OVCAR-4 ovarian = test system: OVCAR-4 ovarian
MDA-MB-231 breast = test system: MDA-MB-231 breast
UACC-62 melanoma = test system: UACC-62 melanoma
UACC-257 melanoma = test system: UACC-257 melanoma
SK-MEL-5 melanoma = test system: SK-MEL-5 melanoma
NCI/ADR-RES ovarian = test system: NCI/ADR-RES ovarian
RPMI-8226 leukemia = test system: RPMI-8226 leukemia
ACHN renal = test system: ACHN renal
EKVX NSCLC = test system: EKVX NSCLC
CAKI-1 renal = test system: CAKI-1 renal
HOP-62 NSCLC = test system: HOP-62 NSCLC
K-562 leukemia = test system: K-562 leukemia
NCI-H522 lung = test system: NCI-H522 lung
CCRF-CEM leukemia = test system: CCRF-CEM leukemia
HCC-2998 colon = test system: HCC-2998 colon
SK-MEL-28 melanoma = test system: SK-MEL-28 melanoma
UO-31 renal = test system: UO-31 renal
IGROV1 ovarian = test system: IGROV1 ovarian
SW-620 colon = test system: SW-620 colon
NCI-H460 lung = test system: NCI-H460 lung
SNB-19 CNS = test system: SNB-19 CNS
MDA-MB-435 = test system: MDA-MB-435
DU-145 prostate = test system: DU-145 prostate
A498 renal = test system: A498 renal
TK-10 renal = test system: TK-10 renal
BT-549 breast = test system: BT-549 breast
SF-539 CNS = test system: SF-539 CNS
MCF7 breast = test system: MCF7 breast
LOX IMVI melanoma = test system: LOX IMVI melanoma
HCT-116 colon = test system: HCT-116 colon
SN12C renal = test system: SN12C renal
HL-60(TB) leukemia = test system: HL-60(TB) leukemia
786-0 renal = test system: 786-0 renal
OVCAR-5 ovarian = test system: OVCAR-5 ovarian
HT29 colon = test system: HT29 colon
MOLT-4 leukemia = test system: MOLT-4 leukemia
NCI-H226 lung = test system: NCI-H226 lung
NCI-H23 lung = test system: NCI-H23 lung
OVCAR-8 ovarian = test system: OVCAR-8 ovarian
SK-MEL-2 melanoma = test system: SK-MEL-2 melanoma
KM12 colon = test system: KM12 colon
COLO 205 colon = test system: COLO 205 colon
MALME-3M melanoma = test system: MALME-3M melanoma
T-47D breast = test system: T-47D breast
SF-295 CNS = test system: SF-295 CNS
SK-OV-3 ovarian = test system: SK-OV-3 ovarian
SNB-75 CNS = test system: SNB-75 CNS
SR leukemia = test system: SR leukemia
PC-3 prostate = test system: PC-3 prostate
OVCAR-3 ovarian = test system: OVCAR-3 ovarian
HCT-15 colon = test system: HCT-15 colon
A549 NSCLC = test system: A549 NSCLC
SF-268 CNS = test system: SF-268 CNS

Nc1ccncc1/C=C1/C(=O)Nc2ccccc21
79 µM: TGI (SF-295 CNS)
63.2 µM: TGI (SNB-75 CNS)
76.3 µM: TGI (OVCAR-3 ovarian)
> 100 µM: TGI (U251 CNS) | TGI (HS 578T breast) | TGI (OVCAR-4 ovarian) | TGI (MDA-MB-231 breast) | TGI (UACC-62 melanoma) | TGI (UACC-257 melanoma) | TGI (SK-MEL-5 melanoma) | TGI (NCI/ADR-RES ovarian) | TGI (RPMI-8226 leukemia) | TGI (ACHN renal) | TGI (EKVX NSCLC) | TGI (K-562 leukemia) | TGI (CCRF-CEM leukemia) | TGI (SK-MEL-28 melanoma) | TGI (UO-31 renal) | TGI (IGROV1 ovarian) | TGI (SW-620 colon) | TGI (NCI-H460 lung) | TGI (SNB-19 CNS) | TGI (DU-145 prostate) | TGI (TK-10 renal) | TGI (BT-549 breast) | TGI (SF-539 CNS) | TGI (MCF7 breast) | TGI (LOX IMVI melanoma) | TGI (HCT-116 colon) | TGI (SN12C renal) | TGI (786-0 renal) | TGI (OVCAR-5 ovarian) | TGI (HT29 colon) | TGI (MOLT-4 leukemia) | TGI (NCI-H226 lung) | TGI (NCI-H23 lung) | TGI (OVCAR-8 ovarian) | TGI (KM12 colon) | TGI (COLO 205 colon) | TGI (T-47D breast) | TGI (SK-OV-3 ovarian) | TGI (SR leukemia) | TGI (PC-3 prostate) | TGI (HCT-15 colon) | TGI (A549 NSCLC) | TGI (SF-268 CNS)
59.6 µM: TGI (M14 melanoma)
81.6 µM: TGI (HOP-62 NSCLC)
inactive: GI50 (M14 melanoma) 20.5 µM | GI50 (U251 CNS) 47.9 µM | GI50 (HS 578T breast) 41.2 µM | GI50 (OVCAR-4 ovarian) 33.4 µM | GI50 (MDA-MB-231 breast) 50.1 µM | GI50 (UACC-62 melanoma) 32.5 µM | GI50 (UACC-257 melanoma) > 100 µM | GI50 (SK-MEL-5 melanoma) 28 µM | GI50 (NCI/ADR-RES ovarian) 35.9 µM | GI50 (RPMI-8226 leukemia) > 100 µM | GI50 (ACHN renal) 43.7 µM | GI50 (EKVX NSCLC) 47.2 µM | GI50 (CAKI-1 renal) 30.2 µM | GI50 (HOP-62 NSCLC) 23.6 µM | GI50 (K-562 leukemia) 33.6 µM | GI50 (NCI-H522 lung) 24 µM | GI50 (CCRF-CEM leukemia) 68.3 µM | GI50 (HCC-2998 colon) 25.3 µM | GI50 (SK-MEL-28 melanoma) 28.9 µM | GI50 (UO-31 renal) 18.9 µM | GI50 (IGROV1 ovarian) 29 µM | GI50 (SW-620 colon) 31.4 µM | GI50 (NCI-H460 lung) 28.4 µM | GI50 (SNB-19 CNS) 36.8 µM | GI50 (MDA-MB-435) 14.4 µM | GI50 (DU-145 prostate) 44.9 µM | GI50 (A498 renal) 18.7 µM | GI50 (TK-10 renal) 54.7 µM | GI50 (BT-549 breast) 40.2 µM | GI50 (SF-539 CNS) 34.6 µM | GI50 (MCF7 breast) 26.6 µM | GI50 (LOX IMVI melanoma) 28 µM | GI50 (HCT-116 colon) 43.9 µM | GI50 (SN12C renal) 18.3 µM | GI50 (HL-60(TB) leukemia) 14.5 µM | GI50 (786-0 renal) 34.8 µM | GI50 (OVCAR-5 ovarian) 75.3 µM | GI50 (HT29 colon) 27.8 µM | GI50 (MOLT-4 leukemia) 37.3 µM | GI50 (NCI-H226 lung) 40.5 µM | GI50 (NCI-H23 lung) 31.9 µM | GI50 (OVCAR-8 ovarian) 62.5 µM | GI50 (SK-MEL-2 melanoma) 19.4 µM | GI50 (KM12 colon) 25 µM | GI50 (COLO 205 colon) 19.8 µM | GI50 (MALME-3M melanoma) 20.6 µM | GI50 (T-47D breast) > 100 µM | GI50 (SF-295 CNS) 28.2 µM | GI50 (SK-OV-3 ovarian) 46.7 µM | GI50 (SNB-75 CNS) 18.5 µM | GI50 (SR leukemia) 23.2 µM | GI50 (PC-3 prostate) 41.1 µM | GI50 (OVCAR-3 ovarian) 25.4 µM | GI50 (HCT-15 colon) 36.5 µM | GI50 (A549 NSCLC) 56.9 µM | GI50 (SF-268 CNS) 28 µM
89.7 µM: TGI (CAKI-1 renal)
59.9 µM: TGI (HCC-2998 colon)
52.7 µM: TGI (A498 renal)
35.4 µM: TGI (MDA-MB-435)
87.3 µM: TGI (SK-MEL-2 melanoma)
80.9 µM: TGI (MALME-3M melanoma)
39.8 µM: TGI (HL-60(TB) leukemia)
71.6 µM: TGI (NCI-H522 lung)
